Data on 2 compounds can be found in patent publication US4361570A (Istituto Luso Farmaco D'Italia S.p.A., priority 1980, dated 1982).

For data set [1] the following is noted: pregnant rat.
For data set [2] the following is noted: 400 mg/kg/os, rats, six months.
Data set [3] deals with hyperlacticacidaemia. In words: Lacticacidaemia in cyrrhotic patients having hyperlacticacidaemia (double blind). To be noted: venous 2300 mg in 250 ml, 25 cyrrhotic patients.
For data set [4] the following is noted: Mouse.
For data set [5] the following is noted: rats.
For data set [6], the system named is lacticacidaemia. To be noted: for lactate level: control animals 5.1±0.59 mM/l. Here is the method: The resulting lactate levels are 2.9±0.8 mM/l with modality "A" and 1.37±0.01 mM/l with modality "B", respectively.
The control animals show a lacticacidaemia level of 5.1±0.59 mM/l.

Data set [7] has as its system maximal aerobic capacity; blood lactate. Briefly: Maximal aerobic capacity and blood lactate at work loads in trained non-athletic individuals.
The conditions of data set [8]: Rat.
The conditions of data set [9]: 920 mg/kg/i.m., dog.
For data set [10] the following is noted: Rabbit, i.v.
The conditions of data set [11]: pregnant rabbit.
In data set [12] the test system is lacticacidaemia. To be noted: for lacticacidaemia, basal / lacticacidaemia, after 15 minutes / lacticacidaemia, after 10 minutes / lacticacidaemia, immediately after stress: 2300 mg in 250 ml venous infusion. Here is the method:
All the patients are being treated with insulin and are in a metabolic compensation.
The trials are performed on double-blind conditions. Each patient is subjected to an isometric stress test at 50% of its maximum ability for one minute.
The samples for measuring the lacticacidaemia are taken from the same arm performing the muscular stress.

The test system of data set [13] is homogenized liver and brain. To be noted: in vitro, Warburg apparatus, French Pat. No. 6453 M; cited from earlier work.
For data set [14], the system named is blood lactic acid.
In data set [15] the test system is lacticacidaemia. To be noted: known effect of metformin; cited from earlier work.

Structures are written as SMILES. Read-outs that look alike come from different tables or passages of the source.

As to `Cc1ncc(CO)c(CO)c1O.O=C(O)CCC(=O)C(=O)O` [PAK], the Activity on gestation entry in data set [1] (46 mg/kg/i.m.) is “does not cause any noxious effect in the pregnant female, on the gestation and on the embryo-fetal development”; in data set [1] (oral 1300 mg/kg), “does not cause any noxious effect in the pregnant female, on the gestation and on the embryo-fetal development”; in data set [11] (46 mg/kg/i.m.) it was “does not cause any noxious effect in the pregnant female, on the gestation and on the embryo-fetal development”; in [11] (oral 1300 mg/kg), “does not cause any noxious effect in the pregnant female, on the gestation and on the embryo-fetal development”. The Chronic toxicity result in [2] was “does not cause any collateral nor toxic effect in the various organs”. Further, the “further increase of hyperlacticacidaemia” value in [3] is “prevented its further increase”. Further, the “reduction of hyperlacticacidaemia vs basal values and controls” value in [3] (p<0.01) was “statistically significant (p<0.01) reduction”. Besides, the LD50 in [4] (i.m.) is 2472 mg/kg; in data set [4] (i.p.), 1590 mg/kg; in data set [4] (i.v.), 496 mg/kg; in data set [4] (os), 5600 mg/kg; in [8] (i.m.), 2329 mg/kg; in [8] (i.p.), 1704 mg/kg. Moreover, the LD50 in [8] (i.v.) is given as 588 mg/kg; in data set [8] (os) it was 4800 mg/kg; in data set [10], 1050 mg/kg. Further, the Systemic tolerability result in data set [5] (46 mg/kg/i.v.), in [5] (460 mg/kg/i.m.) and in [9] was “well tolerated” each time. Moreover, the decrease of lacticacidaemia entry in data set [6] (modality "A" and modality "B", with metformin) is given as “notable decrease of lacticacidaemia”. In addition, the lactate level is on record as 2.9±0.8 mM/l in [6] (modality "A": PAK 25 mg/h venous infusion contemporaneously with metformin (300 mg/i.d.)) and 1.37±0.01 mM/l in data set [6] (modality "B": PAK 25 mg/h venous infusion three hours after metformin (300 mg/i.d.)). Besides, the “effect on half time (t 1/2) of La disappearance from blood during recovery” value in data set [7] (30 mg/kg) is reported as “unaffected”. Besides, the “increase of maximal aerobic capacity (VO2 max)” value in [7] (30 mg/kg of body weight, p<0.005) came to 6%. For the same compound, in [7] (30 mg/kg, onset and offset of a rectangular work load), the “kinetics of the VO2 on-and-off responses” value is “not affected”. The “ΔLab, peak blood lactate concentration vs control group” value is -1.1 mmol·1^-1 in [7] (30 mg/kg, supermaximal running work load lasting 60 seconds, p<0.05) and under 2.7 mmol·1^-1 in data set [7] (30 mg/kg, supermaximal running work load lasting 132±4 seconds, p<0.01). In [12] (analysis of the variance), the duration of effect entry was “protracted in time”. For the same compound, the “reduction of lacticacidaemia after stress” value in [12] (analysis of the variance) is given as “faster with PAK”. Also, the “increase of lacticacidaemia by stress with respect to physiological solution” value in [12] (analysis of the variance, p<0.01) is reported as “lower with respect to physiological solution”. The “lacticacidaemia, basal” value in data set [12] (sequence (a) physiological solution/PAK, physiological solution 0.88 ± 0.19) is on record as 0.94 ± 0.20; in data set [12] (sequence (b) PAK/physiological solution, physiological solution 0.93 ± 0.19) it was 0.88 ± 0.16. Further, the “lacticacidaemia, after 15 minutes” value in [12] (sequence (a) physiological solution/PAK, physiological solution 1.54 ± 0.30) is listed as 1.18 ± 0.30; in data set [12] (sequence (b) PAK/physiological solution, physiological solution 1.25 ± 0.40), 1.11 ± 0.29. The “lacticacidaemia, after 10 minutes” value turned out to be 1.60 ± 0.30 in data set [12] (sequence (a) physiological solution/PAK, physiological solution 1.73 ± 0.35) and 1.30 ± 0.33 in data set [12] (sequence (b) PAK/physiological solution, physiological solution 1.43 ± 0.44). For the same compound, the “lacticacidaemia, immediately after stress” value in [12] (sequence (a) physiological solution/PAK, physiological solution 3.12 ± 0.46) is 2.62 ± 0.38; in data set [12] (sequence (b) PAK/physiological solution, physiological solution 2.08 ± 0.49), 2.03 ± 0.47. Besides, the “oxygen consumption vs α-ketoglutaric acid or pyridoxine alone” value in data set [13] is on record as “markedly higher”. Besides, the “decrease in the formation of blood lactic acid” value in data set [14] (2 g/100 kg of weight/day for 15 days, 5 trotters, trot) is on record as “significant decrease”. The “basal lacticacidaemia after treatment” value in data set [14] (2 g/100 kg/day for 15 days, before treatment 6.04 mg/100 ml) was determined as 3.30 mg/100 ml. The “lacticacidaemia immediately after the stress, after treatment” value in data set [14] (2 g/100 kg/day for 15 days, before treatment 29.41 mg/100 ml) amounted to 15.94 mg/100 ml.
Regarding `CN(C)C(=N)N=C(N)N` [metformin], the lacticacidosis in rat result in data set [15] is “causes lacticacidosis”.

As usually defined, the LD50 is the dose at which mortality reaches 50%. Low values mean greater toxicity, high ones lower toxicity.
